Consider one molecule from PMC10857906, “PROTAC-mediated NR4A1 degradation as a novel strategy for cancer immunotherapy” (The Journal of Experimental Medicine, 2024).

The subject of one experiment is NR4A1 mRNA. The experiment in a line: NR4A1 mRNA by qPCR in CHL-1 cells. The format is cell-based, human. The conditions noted are these: 500 nM, ACTB as control. The method, then:
Total RNA was extracted from cells using RNeasy Kits (74004; QIAGEN) following the manufacturer’s instructions. cDNA synthesis was performed using SuperScript III Reverse Transcriptase (18080044; Thermo Fisher Scientific) with 100 ng RNA as the template. Amplification of cDNA was carried out using 2× PowerUP SYBR Green Master Mix (A25778; Thermo Fisher Scientific). Each reaction was conducted in triplicates and results were normalized to the expression of a housekeeping gene. Primer (Eurofins): human β-actin (forward sequence: 5′-CACCATTGGCAATGAGCGGTTC-3′; reverse sequence: 5′-AGGTCTTTGCGGATGTCCACGT-3′) and human NR4A1 (forward sequence: 5′-GGACAACGCTTCATGCCAGCAT-3′; reverse sequence: 5′-CCTTGTTAGCCAGGCAGATGTAC-3′).
In general terms: Quantitative PCR measures a nucleic acid by following its amplification.

Another experiment has as its target NR4A1 and VHL (Homo sapiens, UniProt P22736+P40337). In words: Co-IP of Flag-NR4A1 and VHL in HEK293T cells. The format is cell-based. The conditions noted are these: 500 nM, 16 h, 0.5 μM MG132. The method, then:
HEK293T cells were transfected with 3 µg Flag-NR4A1 (HG17699-CF; SinoBiological) for 36 h in Opti-MEM (31985062; Thermo Fisher Scientific) medium with 10 µl GeneTran III reagent (GT2211; Biomiga).
HEK293T cells were transfected with Flag-NR4A1 for 36 h, following with treatment of either DMSO or 500 nM […] for 16 h, together with 500 nM MG132 included to prevent protein degradation. Proteins were extracted using RIPA lysis buffer without SDS (150 mM NaCl, 5 mM EDTA, 50 mM Tris, pH 8.0, 0.5% sodium deoxycholate, and 1% NP-40) supplemented with 1% protease inhibitor cocktail (C0001; TargetMol). IP was performed using Anti-FLAG M2 Magnetic Beads (M8823; Sigma-Aldrich) as per the manufacturer’s protocol. The immunoprecipitated samples were eluted with 2× SDS sample buffer and boiled for 5 min at 95°C. The samples were then subjected to denaturation, SDS-PAGE, and immunoblotting analysis.

The next experiment deals with splenic B cells. In words: B cell proliferation assay (splenic B cells, B16F10 lysate, Cell Trace Violet). The format is cell-based, mouse. The conditions noted are these: WT B cells with B16F10 lysates, 250 or 500 nM, 24 h. The method, then:
B cells were isolated from the spleen by using EasySep Mouse B cell Isolation Kit (19854; STEMCELL) and cultured in RPMI supplemented with […] non-essential amino acids (11140050; Thermo Fisher Scientific), 1 mM sodium pyruvate (11360070; Thermo Fisher Scientific), 1 mM Glutamax, 10 mM HEPES (15630080; Thermo Fisher Scientific), 0.1% 2-mercaptoethanol (21985023; Thermo Fisher Scientific), 10% FBS (F2442; Sigma-Aldrich) and 100 U/ml penicillin, and 100 µg/ml streptomycin (P4333; Sigma-Aldrich). B cells were stained with 5 nM CellTrace Violet Cell (C34557; Thermo Fisher Scientific) for 8 min in a 37°C water bath. B cells were plated at a concentration of 5 × 10^5 cells per 200 μl in round-bottom 96-well plates treated with 0.1% B16F10 melanoma cell lysis or 10 µg/ml goat anti-mouse IgM F(ab′)2 (115-006-020; Jackson ImmunoResearch). B cells were treated with NR-V04 or DMSO for 24 h and collected for flow cytometry analysis.
Mouse tumors were excised and ∼200 mg of tumor tissue was enzymatically and mechanically digested using the mouse Tumor Dissociation Kit (Miltenyi Biotec) to obtain a single-cell suspension. […] Flow cytometry was performed on a three laser Cytek Aurora Cytometer (Cytek Biosciences) and analyzed using FlowJo software (BD Biosciences). […]

Chain of NR4A1 and VHL (P22736 whole entry): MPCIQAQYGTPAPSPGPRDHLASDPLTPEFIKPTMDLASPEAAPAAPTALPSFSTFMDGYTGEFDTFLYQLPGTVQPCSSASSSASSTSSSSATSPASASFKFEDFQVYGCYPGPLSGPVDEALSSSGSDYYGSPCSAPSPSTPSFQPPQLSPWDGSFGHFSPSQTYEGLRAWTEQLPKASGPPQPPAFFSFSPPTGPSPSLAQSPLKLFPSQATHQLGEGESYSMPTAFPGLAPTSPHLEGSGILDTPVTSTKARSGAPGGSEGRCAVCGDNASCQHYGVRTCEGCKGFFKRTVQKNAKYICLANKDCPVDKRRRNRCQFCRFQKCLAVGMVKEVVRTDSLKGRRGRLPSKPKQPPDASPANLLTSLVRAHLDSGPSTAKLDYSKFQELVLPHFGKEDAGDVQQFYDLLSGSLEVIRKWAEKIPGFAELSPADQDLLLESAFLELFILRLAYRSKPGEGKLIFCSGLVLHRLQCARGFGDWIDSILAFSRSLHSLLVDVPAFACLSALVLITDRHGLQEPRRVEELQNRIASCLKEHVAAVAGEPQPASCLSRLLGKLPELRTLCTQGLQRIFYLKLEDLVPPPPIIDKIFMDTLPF
Chain of NR4A1 and VHL (P40337 whole entry): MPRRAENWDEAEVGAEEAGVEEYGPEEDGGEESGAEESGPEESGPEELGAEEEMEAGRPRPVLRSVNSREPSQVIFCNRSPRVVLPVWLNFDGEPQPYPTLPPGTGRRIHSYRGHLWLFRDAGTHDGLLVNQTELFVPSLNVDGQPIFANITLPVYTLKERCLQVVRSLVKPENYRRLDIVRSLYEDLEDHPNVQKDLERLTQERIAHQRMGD
Chain of NR4A1 and VHL (Q15369 whole entry partner): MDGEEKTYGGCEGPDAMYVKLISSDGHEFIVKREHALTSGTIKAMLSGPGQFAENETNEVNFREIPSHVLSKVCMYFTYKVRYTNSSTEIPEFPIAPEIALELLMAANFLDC
Chain of NR4A1 and VHL (Q15370 whole entry partner): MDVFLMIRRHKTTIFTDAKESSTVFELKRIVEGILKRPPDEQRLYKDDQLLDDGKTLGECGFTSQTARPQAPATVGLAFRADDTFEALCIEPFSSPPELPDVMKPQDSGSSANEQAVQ

For the molecule `CC1=C(O)C(=O)C=C2C1=CC=C1[C@@]2(C)CC[C@@]2(C)[C@@H]3C[C@](C)(C(=O)NCCOCCOCCOCCOCC(=O)N[C@H](C(=O)N4C[C@H](O)C[C@H]4C(=O)N[C@@H](C)c4ccc(-c5scnc5C)cc4)C(C)(C)C)CC[C@]3(C)CC[C@]12C` [NR-V04], the “NR4A1 mRNA level” value with NR4A1 mRNA was “increased NR4A1 mRNA after 4 h”. Besides, the Co-IP complex formation entry at NR4A1 and VHL was “complex formation between NR4A1 and VHL”. In addition, in the experiment with splenic B cells, the B cell proliferation entry is “significantly increased B cell proliferation” and the “NR4A1 in B cells” value is given as “led to NR4A1 degradation in B cells”.
